Tests used:
[1] = system: Green Peach Aphid (Myzus persicae) (MYZUPE); assay: Bioassay on Green Peach Aphid (GPA), foliar spray on infested cabbage seedlings; assay type: in vivo; conditions: 72 h, 200 ppm foliar spray on cabbage, live aphids counted after three days, read-out: MYZUPE rating (% Mortality; Abbott corrected % control)
Procedure: Example A Bioassays on Green Peach Aphid (“GPA”) (Myzus persicae) (MYZUPE.)
Several molecules disclosed herein were tested against GPA using procedures described below.
Cabbage seedling grown in 3-in pots, with 2-3 small (3-5 cm) true leaves, were used as test substrate. The seedlings were infested with […] (wingless adult and nymph stages) one day prior to chemical application. Four pots with individual seedlings were used for each treatment. Test compounds (2 mg) were dissolved in 2 mL of acetone/MeOH (1:1) solvent, forming stock solutions of 1000 ppm test compound. The stock solutions were diluted 5× with 0.025% Tween 20 in water to obtain the solution at 200 ppm test compound. A hand-held aspirator-type sprayer was used for spraying a solution to both sides of the cabbage leaves until runoff. Reference plants (solvent check) were sprayed with the diluent only containing […] acetone/MeOH (1:1) solvent. Treated plants were held in a holding room for three days at approximately 25° C. and ambient relative humidity (RH) prior to grading. Evaluation was conducted by counting the number of live aphids per plant under a microscope. Percent Control was measured by using Abbott's correction formula (W. S. Abbott, “A Method of Computing the Effectiveness of an Insecticide” J. Econ. Entomol 18 (1925), pp. 265-267) as follows. Corrected % Control=100*(X−Y)/X […]

[2] = system: Sweetpotato Whitefly Crawler (Bemisia tabaci) (BEMITA); assay: Bioassay on Sweetpotato Whitefly Crawler, foliar spray on infested cotton plants; assay type: in vivo; conditions: 200 ppm foliar spray on cotton, live nymphs counted after 8-9 days, read-out: BEMITA rating (% Mortality; Abbott corrected % control)
Excerpt: Example B Bioassays on Sweetpotato Whitefly Crawler (Bemisia tabaci) (BEMITA.)
Cotton plants grown in 3-inch pots, with 1 small (3-5 cm) true leaf, were used at test substrate. The plants were placed in a room with whitely adults. Adults were allowed to deposit eggs for 2-3 days. After a 2-3 day egg-laying period, plants were taken from the adult whitefly room. Adults were blown off leaves using a hand-held Devilbliss sprayer (23 psi). Plants with egg infestation (100-300 eggs per plant) were placed in a holding room for 5-6 days at 82° F. and 50% RH for egg hatch and crawler stage to develop. Four cotton plants were used for each treatment. Compounds (2 mg) were dissolved in 1 mL of acetone solvent, forming stock solutions of 2000 ppm. The stock solutions were diluted 10× with 0.025% Tween 20 in water to obtain a test solution at 200 ppm. A hand-held Devilbliss sprayer was used for spraying a solution to both sides of cotton leaf until runoff. Reference plants (solvent check) were sprayed with the diluent only. Treated plants were held in a holding room for 8-9 days at approximately 82° F. and 50% RH prior to grading. Evaluation was conducted by counting the number of live nymphs per plant under a microscope.

Structure (SMILES): CCOC(=O)C1CC(=O)NN1c1cccnc1 (stereo not shown) [Example Compound 10a, Ethyl 5-oxo-2-(pyridin-3-yl)pyrazolidine-3-carboxylate]
- mortality at 200 ppm [1]: 0 to 80%
- mortality at 200 ppm [2]: 0 to 80%

Structure (SMILES): CCOC(=O)C1CC(Cl)=NN1c1cccnc1 (stereo not shown) [Example Compound 10b, Ethyl 3-chloro-1-(pyridin-3-yl)-4,5-dihydro-1H-pyrazole-5-carboxylate]
- mortality at 200 ppm [1]: 0 to 80%
- mortality at 200 ppm [2]: 0 to 80%

Source: patent US10005758B2, “Process for the preparation of 3-(3-chloro-1H-pyrazol-1-yl)pyridine” (Dow AgroSciences LLC, priority 2014, dated 2018)
